ChEMBL document CHEMBL5321256, “Tolypocaibols: Antibacterial Lipopeptaibols from a Tolypocladium sp. Endophyte of the Marine Macroalga Spongomorpha arcta” (2023)
≈ marks a conversion by molar mass, not a printed value. Square brackets hold non-standard residues; d marks the D form. Peptide text beside a SMILES is read from it. * marks the point of attachment. Pro(4S-Me) = C[C@@H]1CN[C@H](C(=O)O)C1; Decanoyl = CCCCCCCCCC(=O)*; Valol = CC(C)[C@@H](CO)N*; Aib = CC(C)(N)C(=O)O

Columns and labels:
Type in all cases: functional
Escherichia coli = experiment: Antibacterial activity against Escherichia coli measured after 18 to 20 hrs by broth microdilution method; settings: time 18-20 hrs
Klebsiella aerogenes = experiment: Antibacterial activity against Klebsiella aerogenes measured after 18 to 20 hrs by broth microdilution method; settings: time 18-20 hrs
Klebsiella pneumoniae = experiment: Antibacterial activity against Klebsiella pneumoniae measured after 18 to 20 hrs by broth microdilution method; settings: time 18-20 hrs
Salmonella enterica = experiment: Antibacterial activity against Salmonella enterica measured after 18 to 20 hrs by broth microdilution method; settings: time 18-20 hrs
Shigella sonnei = experiment: Antibacterial activity against Shigella sonnei measured after 18 to 20 hrs by broth microdilution method; settings: time 18-20 hrs
Brucella anthropi = experiment: Antibacterial activity against Ochrobactrum anthropi measured after 18 to 20 hrs by broth microdilution method; settings: time 18-20 hrs
[1] = test system: Providencia alcalifaciens; experiment: Antibacterial activity against Providencia alcalifaciens measured after 18 to 20 hrs by broth microdilution method; settings: time 18-20 hrs
Pseudomonas aeruginosa = experiment: Antibacterial activity against Pseudomonas aeruginosa measured after 18 to 20 hrs by broth microdilution method; settings: time 18-20 hrs
Vibrio cholerae = experiment: Antibacterial activity against Vibrio cholerae measured after 18 to 20 hrs by broth microdilution method; settings: time 18-20 hrs
[2] = test system: Yersinia pseudotuberculosis; experiment: Antibacterial activity against Yersinia pseudotuberculosis measured after 18 to 20 hrs by broth microdilution method; settings: time 18-20 hrs
Bacillus subtilis = experiment: Antibacterial activity against Bacillus subtilis measured after 18 to 20 hrs by broth microdilution method; settings: time 18-20 hrs
[3] = test system: Staphylococcus epidermidis; experiment: Antibacterial activity against Staphylococcus epidermidis measured after 18 to 20 hrs by broth microdilution method; settings: time 18-20 hrs
Staphylococcus aureus [4] = experiment: Antibacterial activity against methicillin-susceptible Staphylococcus aureus measured after 18 to 20 hrs by broth microdilution method; settings: time 18-20 hrs
Staphylococcus aureus [5] = experiment: Antibacterial activity against methicillin-resistant Staphylococcus aureus measured after 18 to 20 hrs by broth microdilution method; settings: time 18-20 hrs
Listeria ivanovii = experiment: Antibacterial activity against Listeria ivanovii ATCC BAA-139 measured after 18 to 20 hrs by broth microdilution method; settings: time 18-20 hrs
Enterococcus faecium = experiment: Antibacterial activity against Enterococcus faecium measured after 18 to 20 hrs by broth microdilution method; settings: time 18-20 hrs
Enterococcus faecalis = experiment: Antibacterial activity against Enterococcus faecalis measured after 18 to 20 hrs by broth microdilution method; settings: time 18-20 hrs
[6] = test system: Mycobacterium tuberculosis; experiment: Antibacterial activity against Mycobacterium tuberculosis ATCC 25177 by resazurin microplate assay
[7] = test system: Mycolicibacterium smegmatis; experiment: Antibacterial activity against Mycobacterium smegmatis ATCC 70084 by resazurin microplate assay

SMILES	MIC (Escherichia coli) [µM]	MIC (Klebsiella aerogenes) [µM]	MIC (Klebsiella pneumoniae) [µM]	MIC (Salmonella enterica) [µM]	MIC (Shigella sonnei) [µM]	MIC (Brucella anthropi) [µM]	MIC [1] [µM]	MIC (Pseudomonas aeruginosa) [µM]	MIC (Vibrio cholerae) [µM]	MIC [2] [µM]	MIC (Bacillus subtilis) [µM]	MIC [3] [µM]	MIC (Staphylococcus aureus [4]) [µM]	MIC (Staphylococcus aureus [5]) [µM]	MIC (Listeria ivanovii) [µM]	MIC (Enterococcus faecium) [µM]	MIC (Enterococcus faecalis) [µM]	MIC [6] [µM]	MIC [7] [µM]
CCCCCCCCCC(=O)NC(C)(C)C(=O)N1C[C@@H](C)C[C@H]1C(=O)N[C@@H](Cc1ccccc1)C(=O)NC(C)(C)C(=O)N[C@@H](CCC(N)=O)C(=O)N[C@@H](CCC(N)=O)C(=O)NC(C)(C)C(=O)NC(C)(C)C(=O)N[C@@H](CCC(N)=O)C(=O)N[C@@H](CC(C)C)C(=O)N[C@H](CO)C(C)C (Decanoyl-[Aib][Pro(4S-Me)]F[Aib]QQ[Aib][Aib]QL-Valol)	> 128	> 128	> 128	> 128	> 128	> 128	> 128	> 128	> 128	> 128	4 (≈ 5.41 µg/mL)	> 128	4 (≈ 5.41 µg/mL)	16 (≈ 21.7 µg/mL)	8 (≈ 10.8 µg/mL)	16 (≈ 21.7 µg/mL)	16 (≈ 21.7 µg/mL)	40 (≈ 54.1 µg/mL)	80 (≈ 108 µg/mL)
CO[C@H]1/C=C/O[C@@]2(C)Oc3c(C)c(O)c4c(O)c(c(/C=N/N5CCN(C)CC5)c(O)c4c3C2=O)NC(=O)/C(C)=C\C=C\[C@H](C)[C@H](O)[C@@H](C)[C@@H](O)[C@@H](C)[C@H](OC(C)=O)[C@@H]1C [RIFAMPIN]	4 (≈ 3.29 µg/mL)	8 (≈ 6.58 µg/mL)	16 (≈ 13.2 µg/mL)	2 (≈ 1.65 µg/mL)	1.67 (≈ 1.37 µg/mL)	4 (≈ 3.29 µg/mL)	8 (≈ 6.58 µg/mL)	53.3 (≈ 43.9 µg/mL)	> 128	10.7 (≈ 8.81 µg/mL)	0.19 (≈ 0.156 µg/mL)	0.02 (≈ 0.0165 µg/mL)	0.01 (≈ 0.00823 µg/mL)	2 (≈ 1.65 µg/mL)	0.02 (≈ 0.0165 µg/mL)	21.3 (≈ 17.5 µg/mL)	1 (≈ 0.823 µg/mL)	0.062 (≈ 0.051 µg/mL)	–
CCCCCCCCCC(=O)NC(C)(C)C(=O)N1CCC[C@H]1C(=O)N[C@@H](Cc1ccccc1)C(=O)NC(C)(C)C(=O)N[C@@H](CCC(N)=O)C(=O)N[C@@H](CCC(N)=O)C(=O)NC(C)(C)C(=O)NC(C)(C)C(=O)N[C@@H](CCC(N)=O)C(=O)N[C@@H](CC(C)C)C(=O)N[C@H](CO)C(C)C (Decanoyl-[Aib]PF[Aib]QQ[Aib][Aib]QL-Valol)	> 128	> 128	> 128	> 128	> 128	> 128	> 128	> 128	> 128	> 128	8 (≈ 10.7 µg/mL)	> 128	8 (≈ 10.7 µg/mL)	16 (≈ 21.4 µg/mL)	8 (≈ 10.7 µg/mL)	32 (≈ 42.9 µg/mL)	32 (≈ 42.9 µg/mL)	20 (≈ 26.8 µg/mL)	80 (≈ 107 µg/mL)
C=C[C@@H]1C[C@H](C)C[C@H](C)[C@H]1c1c(O)ccn(O[C@@H]2C(C(=O)OC)=C[C@@H](O)[C@@H](O)[C@H]2O)c1=O	128 (≈ 57.5 µg/mL)	> 128	> 128	128 (≈ 57.5 µg/mL)	128 (≈ 57.5 µg/mL)	128 (≈ 57.5 µg/mL)	128 (≈ 57.5 µg/mL)	> 128	128 (≈ 57.5 µg/mL)	128 (≈ 57.5 µg/mL)	128 (≈ 57.5 µg/mL)	128 (≈ 57.5 µg/mL)	128 (≈ 57.5 µg/mL)	128 (≈ 57.5 µg/mL)	16 (≈ 7.19 µg/mL)	128 (≈ 57.5 µg/mL)	128 (≈ 57.5 µg/mL)	250 (≈ 112 µg/mL)	> 250
O=C(O)c1cn(C2CC2)c2cc(N3CCNCC3)c(F)cc2c1=O [CIPROFLOXACIN]	0.17 (≈ 0.0563 µg/mL)	2.83 (≈ 0.938 µg/mL)	2 (≈ 0.663 µg/mL)	0.05 (≈ 0.0166 µg/mL)	0.08 (≈ 0.0265 µg/mL)	0.83 (≈ 0.275 µg/mL)	0.13 (≈ 0.0431 µg/mL)	0.5 (≈ 0.166 µg/mL)	0.02 (≈ 0.00663 µg/mL)	0.14 (≈ 0.0464 µg/mL)	0.38 (≈ 0.126 µg/mL)	1.33 (≈ 0.441 µg/mL)	–	64 (≈ 21.2 µg/mL)	8 (≈ 2.65 µg/mL)	0.67 (≈ 0.222 µg/mL)	1 (≈ 0.331 µg/mL)	–	3.8 (≈ 1.26 µg/mL)
